Experimental data: ChEMBL document CHEMBL5724914, “Linking interpersonal differences in gut microbiota composition and drug biotransformation activity” (2024)

Key:
[1] = human gut metagenome, 24 h, 2 µM
[2] = human gut metagenome, 24 h, 2 µM; remark: listed apart in the source
[3] = (§1) The drug is tested on WLS-170 corresponding to human gut metagenome with ENA study accession number: PRJEB37062 and ENA sample accession number: ERS12561762 for biotransformation under anaerobic condition. The drug concentrations were measured over 9 timepoints collected between 0 and 24 hours of incubation by liquid-chromatography-coupled mass spectrometry (LC–MS); details: 2 µM
[4] = human gut metagenome, 24 h, 2 µM; remark: listed apart in the source
[5] = as §1, with “WLS-240” for “WLS-170”, “ERS12561773” for “ERS12561762”; details: 2 µM
[6] = as §1, with “WLS-006” for “WLS-170”, “ERS12561741” for “ERS12561762”; details: 2 µM
[7] = human gut metagenome, 24 h, 2 µM; remark: listed apart in the source
[8] = human gut metagenome, 24 h, 2 µM; remark: listed apart in the source
[9] = as §1, with “WLS-073” for “WLS-170”, “ERS12561749” for “ERS12561762”; details: 2 µM
[10] = human gut metagenome, 24 h, 2 µM; remark: listed apart in the source
[11] = as §1, with “Z-007” for “WLS-170”, “rat” for “human”, “ERS12561807” for “ERS12561762”; details: 2 µM
[12] = as §1, with “WLS-350” for “WLS-170”, “ERS12561789” for “ERS12561762”; details: 2 µM
[13] = human gut metagenome, 24 h, 2 µM; remark: listed apart in the source
[14] = human gut metagenome, 24 h, 2 µM; remark: listed apart in the source
[15] = human gut metagenome, 24 h, 2 µM; remark: listed apart in the source
[16] = as §1, with “Z-022” for “WLS-170”, “mouse” for “human”, “ERS12561821” for “ERS12561762”; details: 2 µM
[17] = as §1, with “WLS-010” for “WLS-170”, “ERS12561743” for “ERS12561762”; details: 2 µM
[18] = human gut metagenome, 24 h, 2 µM; remark: listed apart in the source
[19] = as §1, with “Z-028” for “WLS-170”, “mouse” for “human”, “ERS12561827” for “ERS12561762”; details: 2 µM
[20] = human gut metagenome, 24 h, 2 µM; remark: listed apart in the source
Also: call rule not given here.

| Compound | Bacterial Biotransformation [1] | Bacterial Biotransformation [2] | Bacterial Biotransformation [3] | Bacterial Biotransformation [4] | Bacterial Biotransformation [5] | Bacterial Biotransformation [6] | Bacterial Biotransformation [7] | Bacterial Biotransformation [8] | Bacterial Biotransformation [9] | Bacterial Biotransformation [10] | Bacterial Biotransformation [11] | Bacterial Biotransformation [12] | Bacterial Biotransformation [13] | Bacterial Biotransformation [14] | Bacterial Biotransformation [15] | Bacterial Biotransformation [16] | Bacterial Biotransformation [17] | Bacterial Biotransformation [18] | Bacterial Biotransformation [19] | Bacterial Biotransformation [20] |
| --- | --- | --- | --- | --- | --- | --- | --- | --- | --- | --- | --- | --- | --- | --- | --- | --- | --- | --- | --- | --- |
| O=C(O)COCCN1CCN(C(c2ccccc2)c2ccc(Cl)cc2)CC1 (stereo not drawn) [CETIRIZINE] | Compound metabolized | Compound metabolized | Compound metabolized | Compound metabolized | Compound metabolized | Compound metabolized | Compound metabolized | Compound metabolized | Compound metabolized | Compound metabolized | Compound NOT metabolized | Compound metabolized | Compound metabolized | Compound metabolized | Compound metabolized | Compound metabolized | Compound metabolized | Compound metabolized | Compound NOT metabolized | Compound metabolized |
| C[C@@H]1C[C@H]2[C@@H]3CCC4=CC(=O)C=C[C@]4(C)[C@@]3(F)[C@@H](O)C[C@]2(C)[C@@]1(O)C(=O)CO [DEXAMETHASONE] | Compound NOT metabolized | Compound NOT metabolized | Compound NOT metabolized | Compound NOT metabolized |  |  | Compound NOT metabolized | Compound NOT metabolized | Compound NOT metabolized | Compound NOT metabolized | Compound NOT metabolized | Compound NOT metabolized | Compound NOT metabolized | Compound NOT metabolized | Compound NOT metabolized | Compound metabolized | Compound metabolized | Compound NOT metabolized | Compound NOT metabolized | Compound NOT metabolized |
| CCN1CCCC1CNC(=O)c1cc(S(N)(=O)=O)ccc1OC (stereo not drawn) [SULPIRIDE] | Compound NOT metabolized | Compound NOT metabolized | Compound metabolized | Compound NOT metabolized | Compound metabolized | Compound metabolized | Compound metabolized | Compound metabolized | Compound NOT metabolized | Compound metabolized | Compound NOT metabolized | Compound NOT metabolized | Compound NOT metabolized | Compound metabolized | Compound NOT metabolized | Compound NOT metabolized | Compound metabolized | Compound NOT metabolized | Compound NOT metabolized | Compound NOT metabolized |
| COc1cc2nc(N3CCN(C(=O)c4ccco4)CC3)nc(N)c2cc1OC [PRAZOSIN] | Compound metabolized | Compound metabolized | Compound metabolized | Compound NOT metabolized | Compound metabolized | Compound NOT metabolized | Compound NOT metabolized | Compound metabolized | Compound metabolized | Compound metabolized | Compound NOT metabolized | Compound NOT metabolized | Compound NOT metabolized | Compound metabolized | Compound NOT metabolized | Compound NOT metabolized | Compound metabolized | Compound NOT metabolized | Compound NOT metabolized | Compound NOT metabolized |
| CNC(=C[N+](=O)[O-])NCCSCc1ccc(CN(C)C)o1 [RANITIDINE] | Compound NOT metabolized | Compound metabolized | Compound NOT metabolized | Compound NOT metabolized | Compound NOT metabolized | Compound metabolized | Compound metabolized | Compound NOT metabolized | Compound NOT metabolized | Compound metabolized | Compound NOT metabolized | Compound NOT metabolized | Compound metabolized | Compound NOT metabolized | Compound NOT metabolized | Compound metabolized | Compound NOT metabolized | Compound metabolized | Compound metabolized | Compound NOT metabolized |
| Br.CN(C)CCCC1(c2ccc(F)cc2)OCc2cc(C#N)ccc21 (stereo not drawn) [CITALOPRAM HYDROBROMIDE] | Compound metabolized | Compound metabolized | Compound metabolized | Compound NOT metabolized | Compound metabolized | Compound metabolized | Compound metabolized | Compound metabolized | Compound NOT metabolized | Compound metabolized | Compound NOT metabolized | Compound NOT metabolized | Compound NOT metabolized | Compound metabolized | Compound NOT metabolized | Compound NOT metabolized | Compound NOT metabolized | Compound NOT metabolized | Compound NOT metabolized | Compound NOT metabolized |
| COc1ccc(CCN(C)CCCC(C#N)(c2ccc(OC)c(OC)c2)C(C)C)cc1OC (stereo not drawn) | Compound NOT metabolized | Compound metabolized | Compound metabolized | Compound metabolized | Compound metabolized | Compound NOT metabolized | Compound metabolized | Compound NOT metabolized | Compound metabolized | Compound metabolized | Compound NOT metabolized | Compound metabolized | Compound NOT metabolized | Compound metabolized | Compound metabolized | Compound NOT metabolized | Compound metabolized | Compound metabolized | Compound metabolized | Compound NOT metabolized |
| CC(C)(Oc1ccc(CCNC(=O)c2ccc(Cl)cc2)cc1)C(=O)O [BEZAFIBRATE] | Compound metabolized | Compound metabolized | Compound metabolized | Compound metabolized | Compound metabolized | Compound metabolized | Compound metabolized | Compound metabolized | Compound metabolized | Compound metabolized | Compound NOT metabolized | Compound metabolized | Compound metabolized | Compound metabolized | Compound NOT metabolized | Compound metabolized | Compound metabolized | Compound metabolized | Compound NOT metabolized | Compound metabolized |
| Cc1nc(-c2ccc(OCC(C)C)c(C#N)c2)sc1C(=O)O [FEBUXOSTAT] | Compound metabolized | Compound metabolized | Compound metabolized | Compound metabolized | Compound metabolized | Compound metabolized | Compound metabolized | Compound metabolized | Compound NOT metabolized | Compound metabolized | Compound NOT metabolized | Compound metabolized | Compound metabolized | Compound metabolized | Compound metabolized | Compound metabolized | Compound metabolized | Compound metabolized | Compound metabolized | Compound metabolized |
